Drawing on patent US12624023B2, “Sulfonylurea derivatives and uses thereof” (NodThera Limited, priority 2019, dated 2026), this text covers IC50 for 19 molecules.

Assay [1] has as its system IL-1β release upon NLRP3 activation in peripheral blood mononuclear cells (PBMC). Description: PBMC IC50 determination assay (IL-1β release, LPS priming + ATP stimulation, HTRF). To be noted: PBMC from buffy coats; LPS 1 μg/ml 3 h, compound 30 min, ATP 5 mM 1 h; IL-1β by HTRF. The class given is cell-based. In a few lines: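 Buffy-coat PBMC were primed with LPS (1 μg/ml) for 3 h, given compound for 30 min, then stimulated with 5 mM ATP for 1 h. IL-1β released into the medium was quantified by HTRF, reading 655 and 620 nm.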

Assay [2] concerns IL-1β release upon NLRP3 activation in human whole blood. As to the kind of experiment: Whole blood (WB) assay (IL-1β release, LPS priming + ATP stimulation, HTRF). To be noted: heparin, diluted 9:5 with media, LPS 1 μg/ml 3 h, compound 30 min, ATP 5 mM 1 h, IL-1β by HTRF. It is filed as cell-based. The procedure, abridged: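 Heparinised human whole blood, diluted 9:5 in medium, was primed with LPS (1 μg/ml final) for 3 h. Compound was then added for 30 min, followed by ATP (5 mM final) for 1 h. Secreted IL-1β was measured in the media by HTRF (655/620 nm).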

With `CC(C)c1cc(NC(=O)NS(=O)(=O)N(c2cnn(C)c2)[C@H]2C[C@@H](F)CN(C)C2)c(C(C)C)s1` [Compound 96, 3-[2,5-Bis(propan-2-yl)thiophen-3-yl]-1-{[(3S,5R)-5-fluoro-1-methylpiperidin-3-yl](1-methyl-1H-pyrazol-4-yl)sulfamoyl}urea], the IC50 was in the range of 100 to 500 nM in assay [1] and 3000 to 10000 nM in assay [2].

As to `Cc1sc2c(c1NC(=O)NS(=O)(=O)N(c1cnn(C)c1)C1CCCN(C)C1)CCCC2` (centres unmarked) [Compound 97, 1-[(1-Methyl-1H-pyrazol-4-yl)(1-methylpiperidin-3-yl)sulfamoyl]-3-(2-methyl-4,5,6,7-tetrahydro-1-benzothiophen-3-yl)urea], the values for the IC50 in assay [1] and in assay [2] were 100 to 500 nM and less than 1000 nM, respectively.

For `CN1CCCC(N(c2cnn(C)c2)S(=O)(=O)NC(=O)Nc2c(C(F)(F)F)sc3c2CCC3)C1` (centres unmarked) [Compound 98, 1-[(1-Methyl-1H-pyrazol-4-yl)(1-methylpiperidin-3-yl)sulfamoyl]-3-[2-(trifluoromethyl)-4H,5H,6H-cyclopenta[b]thiophen-3-yl]urea], the IC50 in assay [1] lay within 100 to 500 nM; in assay [2], 1000 to 3000 nM.

On to `CC(C)c1cc(NC(=O)NS(=O)(=O)N(c2cnn(C3CC3)c2F)C2CCCN(C)C2)c(C(C)C)s1` (centres unmarked) [Compound 99, 3-[2,5-Bis(propan-2-yl)thiophen-3-yl]-1-[(1-cyclopropyl-5-fluoro-1H-pyrazol-4-yl)(1-methylpiperidin-3-yl)sulfamoyl]urea], for which the IC50 in assay [1] is less than 100 nM; in assay [2] it was 1000 to 3000 nM.

Consider `Cc1cc(NC(=O)NS(=O)(=O)N(c2cnn(C)c2)C2CCN(C)CC2)c(C(C)C)s1` [Compound 100, 1-[(1-Methyl-1H-pyrazol-4-yl)(1-methylpiperidin-4-yl)sulfamoyl]-3-[5-methyl-2-(propan-2-yl)thiophen-3-yl]urea], for which the IC50 was 100 to 500 nM in assay [1] and less than 1000 nM in assay [2].

With `Cc1cc(NC(=O)NS(=O)(=O)N(c2cnn(C)c2F)C2CCN(C)CC2)c(C(C)C)s1` [Compound 101, 1-[(5-Fluoro-1-methyl-1H-pyrazol-4-yl)(1-methylpiperidin-4-yl)sulfamoyl]-3-[5-methyl-2-(propan-2-yl)thiophen-3-yl]urea], the IC50 in assay [1] is less than 100 nM; in assay [2] it was less than 1000 nM.

Consider `COc1sc2c(c1NC(=O)NS(=O)(=O)N(c1cnn(C)c1)C1CCCN(C)C1)CCC2` (centres unmarked) [Compound 102, 3-{2-Methoxy-4H,5H,6H-cyclopenta[b]thiophen-3-yl}-1-[(1-methyl-1H-pyrazol-4-yl)(1-methylpiperidin-3-yl)sulfamoyl]urea], for which the IC50 was in the range of 100 to 500 nM in assay [1] and 1000 to 3000 nM in assay [2].

Consider `Cc1cc(NC(=O)NS(=O)(=O)N(c2cnn(C3CC3)c2)[C@H]2CCCN(C)C2)c(C(C)C)s1` [Compound 103, 1-[(1-Cyclopropyl-1H-pyrazol-4-yl)[(3S)-1-methylpiperidin-3-yl]sulfamoyl]-3-[5-methyl-2-(propan-2-yl)thiophen-3-yl]urea], for which the values for the IC50 in assay [1] and in assay [2] were less than 100 nM and less than 1000 nM, respectively.

In the case of `Cc1cc(NC(=O)NS(=O)(=O)N(c2cnn(C3CC3)c2)[C@@H]2CCCN(C)C2)c(C(C)C)s1` [Compound 104, 1-[(1-Cyclopropyl-1H-pyrazol-4-yl)[(3R)-1-methylpiperidin-3-yl]sulfamoyl]-3-[5-methyl-2-(propan-2-yl)thiophen-3-yl]urea], the results for the IC50 in assay [1] and in assay [2] were less than 100 nM and less than 1000 nM, respectively.

On to `Cc1cc(NC(=O)NS(=O)(=O)N(c2cnn(C3CC3)c2)[C@@H]2CCCN(C)C2)c(C2CC2)s1` [Compound 106, 1-[(1-Cyclopropyl-1H-pyrazol-4-yl)[(3R)-1-methylpiperidin-3-yl]sulfamoyl]-3-(2-cyclopropyl-5-methylthiophen-3-yl)urea], for which the IC50 lay in the range of 100 to 500 nM in assay [1] and 1000 to 3000 nM in assay [2].

`Cc1cc(NC(=O)NS(=O)(=O)N(c2cnn(C)c2)[C@H]2CCCN(C)C2)c(C2CC2)s1` [Compound 107, 3-(2-Cyclopropyl-5-methylthiophen-3-yl)-1-[(1-methyl-1H-pyrazol-4-yl)[(3S)-1-methylpiperidin-3-yl]sulfamoyl]urea]: the IC50 in assay [1] lay within 100 to 500 nM; in assay [2], 1000 to 3000 nM.

As to `Cc1cc(NC(=O)NS(=O)(=O)N(c2cnn(C)c2)[C@@H]2CCCN(C)C2)c(C2CC2)s1` [Compound 108, 3-(2-Cyclopropyl-5-methylthiophen-3-yl)-1-[(1-methyl-1H-pyrazol-4-yl)[(3R)-1-methylpiperidin-3-yl]sulfamoyl]urea], the IC50 in assay [1] was less than 100 nM; in assay [2], 1000 to 3000 nM.

Regarding `Cc1sc2c(c1NC(=O)NS(=O)(=O)N(c1cnn(C)c1)C1CCN(C)CC1)CCC2` [Compound 109, 1-[(1-Methyl-1H-pyrazol-4-yl)(1-methylpiperidin-4-yl)sulfamoyl]-3-{2-methyl-4H,5H,6H-cyclopenta[b]thiophen-3-yl}urea], the IC50 in assay [1] lay within 100 to 500 nM; in assay [2], 1000 to 3000 nM.

Turning to `Cc1sc2c(c1NC(=O)NS(=O)(=O)N(c1cnn(C)c1)[C@H]1C[C@H](F)CN(C)C1)CCC2` [Compound 110, 1-{[(3S,5S)-5-Fluoro-1-methylpiperidin-3-yl](1-methyl-1H-pyrazol-4-yl)sulfamoyl}-3-{2-methyl-4H,5H,6H-cyclopenta[b]thiophen-3-yl}urea], the IC50 in assay [1] was 100 to 500 nM; in assay [2] it was 1000 to 3000 nM.

For `Cc1cc(NC(=O)NS(=O)(=O)N(c2cnn(C)c2)[C@H]2C[C@H](F)CN(C)C2)c(C(C)C)s1` [Compound 111, 1-{[(3S,5S)-5-Fluoro-1-methylpiperidin-3-yl](1-methyl-1H-pyrazol-4-yl)sulfamoyl}-3-[5-methyl-2-(propan-2-yl)thiophen-3-yl]urea], the IC50 in assay [1] is 100 to 500 nM; in assay [2] it was 1000 to 3000 nM.

On to `Cc1cc(NC(=O)NS(=O)(=O)N(c2cnn(C3CC3)c2)C2CCCN(C)C2)c(C(C)C)s1` (centres unmarked) [Compound 112, 1-[(1-Cyclopropyl-1H-pyrazol-4-yl)(1-methylpiperidin-3-yl)sulfamoyl]-3-[5-methyl-2-(propan-2-yl)thiophen-3-yl]urea], for which the IC50 in assay [1] was less than 100 nM; in assay [2], less than 1000 nM.

For the molecule `Cc1sc2c(c1NC(=O)NS(=O)(=O)N(c1cnn(C3CC3)c1F)C1CCCN(C)C1)CCC2` (centres unmarked) [Compound 113, 1-[(1-Cyclopropyl-5-fluoro-1H-pyrazol-4-yl)(1-methylpiperidin-3-yl)sulfamoyl]-3-{2-methyl-4H,5H,6H-cyclopenta[b]thiophen-3-yl}urea], the values for the IC50 in assay [1] and in assay [2] were less than 100 nM and less than 1000 nM, respectively.

Consider `Cc1cc(NC(=O)NS(=O)(=O)N(c2cnn(C3CC3)c2F)C2CCCN(C)C2)c(C(C)C)s1` (centres unmarked) [Compound 114, 1-[(1-Cyclopropyl-5-fluoro-1H-pyrazol-4-yl)(1-methylpiperidin-3-yl)sulfamoyl]-3-[5-methyl-2-(propan-2-yl)thiophen-3-yl]urea], for which the IC50 in assay [1] was less than 100 nM; in assay [2], less than 1000 nM.

Turning to `Cc1cc(NC(=O)NS(=O)(=O)N(c2cnn(C)c2F)C2CCCN(C)C2)c(C(C)C)s1` (centres unmarked) [Compound 115, 1-[(5-Fluoro-1-methyl-1H-pyrazol-4-yl)(1-methylpiperidin-3-yl)sulfamoyl]-3-[5-methyl-2-(propan-2-yl)thiophen-3-yl]urea], the IC50 was less than 100 nM in assay [1] and less than 1000 nM in assay [2].
